Test results from BindingDB's records for doi:10.1021/acsmedchemlett.6b00315 (Ghent University, 2017).

Tests used:
[1] = Inhibition of methicillin-resistant Staphylococcus aureus Mu50 TRAP assessed as potentiation of vancomycin-induced antibiofilm activity treated for 4 hrs prior to vancomycin addition measured after 20 hrs
[2] = Inhibition of methicillin-resistant Staphylococcus aureus Mu50 TRAP assessed as potentiation of vancomycin-induced antibiofilm activity cotreated with vancomycin for 24 hrs
[3] = as above; remark: listed apart in the source

SMILES: O=C(NC[C@]1(O)CO[C@H](CNC(=O)c2ccccc2Cl)[C@H]1O)c1ccccc1F
- EC50 [1]: 48.6 µM
- EC50 [2]: 62.2 µM

SMILES: O=C(NC[C@H]1OC[C@H](O)[C@@H]1O)c1ccccc1Cl
- EC50 [1]: 11.4 µM
- EC50 [2]: 4.99 µM

SMILES: O=C(NC[C@]1(O)CO[C@H](CNC(=O)c2ccncc2Cl)[C@H]1O)c1ccccc1
- EC50 [1]: > 250 µM
- EC50 [2]: 232 µM

SMILES: Cn1cncc1C(=O)NC[C@H]1OC[C@@](O)(CNC(=O)c2ccccc2)[C@@H]1O
- EC50 [1]: 46.7 µM
- EC50 [3]: 58.2 µM

SMILES: O=C(NC[C@H]1OC[C@@](O)(CNC(=O)c2ccc(-c3ccccc3)cc2)[C@@H]1O)c1ccnnc1
- EC50 [1]: 8.54 µM
- EC50 [2]: 45.4 µM

SMILES: O=C(NC[C@H]1OC[C@@](O)(CNC(=O)C2CCCCC2)[C@@H]1O)c1ccccc1Cl
- EC50 [1]: 9.56 µM
- EC50 [3]: 34 µM

SMILES: O=C(NC[C@H]1OC[C@@](O)(CN2Cc3ccccc3C2=O)[C@@H]1O)c1ccccc1Cl
- EC50 [1]: 13.7 µM
- EC50 [3]: 20.9 µM

SMILES: O=C(NC[C@]1(O)CO[C@H](CNC(=O)c2cccnc2Cl)[C@H]1O)c1ccccc1
- EC50 [1]: > 250 µM
- EC50 [2]: > 250 µM

SMILES: O=C(NC[C@H]1OC[C@@](O)(CNC(=O)c2ccccc2Cl)[C@@H]1O)c1ccccc1
- EC50 [1]: 5.58 µM
- EC50 [2]: 15 µM

SMILES: O=C(NC[C@H]1OC[C@@](O)(CN2C(=O)c3ccccc3C2=O)[C@@H]1O)c1ccc(-c2ccccc2)cc1
- EC50 [1]: 24.7 µM
- EC50 [3]: 12.1 µM

SMILES: O=C(NC[C@]1(O)CO[C@H](CNC(=O)c2ccccc2Cl)[C@H]1O)c1ccccc1
- EC50 [1]: 0.39 µM
- EC50 [2]: 7.98 µM

SMILES: Cc1ccc(C(=O)NC[C@]2(O)CO[C@H](CNC(=O)c3ccccc3Cl)[C@H]2O)cc1
- EC50 [1]: 79.7 µM
- EC50 [3]: 41.9 µM

SMILES: O=C(NC[C@]1(O)CO[C@H](CNC(=O)c2ccccc2Cl)[C@H]1O)c1ccoc1
- EC50 [1]: 68.5 µM
- EC50 [3]: 76.7 µM

SMILES: CC(=O)NC[C@]1(O)CO[C@H](CNC(=O)c2ccccc2Cl)[C@H]1O
- EC50 [1]: 15.4 µM
- EC50 [3]: 3.55 µM

SMILES: O=C(NC[C@H]1OC[C@@](O)(CNCc2ccccc2)[C@@H]1O)c1ccccc1Cl
- EC50 [1]: 6.32 µM
- EC50 [3]: 8.42 µM

SMILES: [N-]=[N+]=NC[C@]1(O)CO[C@H](CNC(=O)c2ccccc2Cl)[C@H]1O
- EC50 [1]: 15.1 µM
- EC50 [3]: 2.34 µM

SMILES: O=C(NC[C@]1(O)CO[C@H](CNC(=O)c2cnccc2Cl)[C@H]1O)c1ccccc1
- EC50 [1]: 200 µM
- EC50 [2]: > 250 µM

SMILES: Cn1nccc1C(=O)NC[C@H]1OC[C@@](O)(CNC(=O)c2ccccc2)[C@@H]1O
- EC50 [1]: 29.3 µM
- EC50 [3]: 23.5 µM

SMILES: O=C(NC[C@]1(O)CO[C@H](CN2C(=O)c3ccccc3C2=O)[C@H]1O)c1ccccc1Cl
- EC50 [1]: 0.26 µM
- EC50 [2]: 1.27 µM

SMILES: O=C(NC[C@]1(O)CO[C@H](CN2C(=O)c3ccccc3C2=O)[C@H]1O)c1ccnnc1
- EC50 [1]: 5.85 µM
- EC50 [2]: 11.4 µM

SMILES: O=C(NC[C@H]1OC[C@@](O)(CN2C(=O)c3ccccc3C2=O)[C@@H]1O)c1ccccc1Cl
- EC50 [1]: 2.63 µM
- EC50 [3]: 39 µM

SMILES: O=C(OC[C@H]1OC(O)[C@@](O)(COC(=O)c2cc(O)c(O)c(O)c2)[C@@H]1O)c1cc(O)c(O)c(O)c1 (some centres undefined) [Hamamelitannin]
- EC50 [1]: 146 µM
- EC50 [3]: 165 µM
